Laboratory results taken from patent publication US8269013B2, “Substituted pyrazole inhibitors of c-Met protein kinase” (Vertex Pharmaceuticals Incorporated, priority 2009, dated 2012).
pIC50, pKi: −log10 of the molar value.

Tests used:
[1] = test system: c-Met in Snu5-AP1-Luc-Pest cells; experiment: Inhibition of c-Met activity in Snu5 gastric carcinoma cells (Snu5-AP1-Luc-Pest luciferase reporter); format: cell-based, human; details: Steady-Glo luminescence, 4-parameter fit
Excerpt: Compounds of formula I were also screened for their ability to inhibit the Luciferase-induced signal in an engineered Snu5 cell line. […] The constitutively active c-Met activates cellular pathways (principally MAP kinase), resulting in AP-1-induced transcription of luciferase-PEST and translation into the final product, the activity of which is quantifiable as a chemiluminescent readout upon the addition of luciferin (Steady-Glo from Promega.). Residual luminescence is strongly correlated to the inhibition of c-Met. A stable cell line was obtained by selecting the new cell line (Snu5-AP1-Luc-Pest) with puromycin. The cells were grown in complete media [Iscove's media (Invitrogen) containing 10% fetal bovine serum (FBS, Hyclone) and penicillin/gentamycin (Invitrogen)]. Compounds of the invention were dissolved in DMSO to make 10 mM initial stock solutions. Serial dilutions in DMSO were then made and transferred to complete medium to make a 10× solution. The Snu5-AP1-Luc-Pest cells were counted and diluted to 200,000-cells/mL solution. The cells (90 μL) were added to each well in a 96-well black with clear bottom plate (Costar). Then 10 μL of the 10× compound solution was added to the cells in triplicate. The plates were incubated in a 37° C./5% CO2 incubator. After 6 hours, 50 μL of the Steady-Glo reagent (Promega) was added to each well and placed on a plate shaker for 5 minutes to ensure that the cells were completely lysed.

[2] = target: c-Met (Homo sapiens, UniProt P08581); experiment: c-Met kinase inhibition assay (radiometric, 33P-ATP, polyE4Y); format: biochemical; details: 0.5 nM c-Met, 35 μM ATP, 0.5 mg/mL polyE4Y, 20 min; competitive tight-binding fit
c-Met, sequence (P08581 25-1390): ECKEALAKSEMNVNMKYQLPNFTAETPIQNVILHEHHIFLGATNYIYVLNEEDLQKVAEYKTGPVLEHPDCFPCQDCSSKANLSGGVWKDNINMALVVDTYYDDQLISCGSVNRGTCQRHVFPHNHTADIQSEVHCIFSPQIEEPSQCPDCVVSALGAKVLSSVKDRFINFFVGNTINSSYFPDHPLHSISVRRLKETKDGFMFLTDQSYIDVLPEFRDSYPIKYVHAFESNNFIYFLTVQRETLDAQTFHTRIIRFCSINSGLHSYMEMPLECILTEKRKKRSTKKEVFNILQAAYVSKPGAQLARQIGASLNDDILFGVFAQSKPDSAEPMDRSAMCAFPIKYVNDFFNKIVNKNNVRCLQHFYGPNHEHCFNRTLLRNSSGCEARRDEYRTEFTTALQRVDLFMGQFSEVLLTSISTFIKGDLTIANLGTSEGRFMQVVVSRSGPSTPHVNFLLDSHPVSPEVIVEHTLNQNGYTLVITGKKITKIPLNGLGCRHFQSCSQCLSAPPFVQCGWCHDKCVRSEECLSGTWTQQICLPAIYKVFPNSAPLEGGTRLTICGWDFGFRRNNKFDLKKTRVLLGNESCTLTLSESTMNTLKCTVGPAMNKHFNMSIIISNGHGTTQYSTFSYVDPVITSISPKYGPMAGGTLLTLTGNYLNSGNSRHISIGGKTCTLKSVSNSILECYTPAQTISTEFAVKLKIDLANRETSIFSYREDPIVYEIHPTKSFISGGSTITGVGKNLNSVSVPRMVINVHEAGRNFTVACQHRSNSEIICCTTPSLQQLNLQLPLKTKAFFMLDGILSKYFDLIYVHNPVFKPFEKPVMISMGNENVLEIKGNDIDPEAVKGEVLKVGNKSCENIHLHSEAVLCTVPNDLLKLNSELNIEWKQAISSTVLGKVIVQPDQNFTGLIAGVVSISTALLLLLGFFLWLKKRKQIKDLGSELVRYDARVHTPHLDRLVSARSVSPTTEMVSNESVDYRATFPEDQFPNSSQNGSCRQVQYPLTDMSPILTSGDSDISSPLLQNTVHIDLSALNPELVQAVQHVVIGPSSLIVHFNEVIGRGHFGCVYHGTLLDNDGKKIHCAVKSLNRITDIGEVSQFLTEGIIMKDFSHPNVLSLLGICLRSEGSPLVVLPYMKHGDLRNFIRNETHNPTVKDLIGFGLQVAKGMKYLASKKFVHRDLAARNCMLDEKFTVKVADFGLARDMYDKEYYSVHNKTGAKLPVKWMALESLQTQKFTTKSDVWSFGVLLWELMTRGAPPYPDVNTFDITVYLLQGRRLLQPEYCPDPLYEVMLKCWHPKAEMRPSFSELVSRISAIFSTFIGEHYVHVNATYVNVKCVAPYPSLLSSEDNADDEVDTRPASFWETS
Protocol: The compounds of the invention were screened for their ability to inhibit c-Met kinase using a standard radiometric assay. Briefly, in this kinase assay the transfer of the terminal ^33P-phosphate in ^33P-ATP to substrate polyE4Y is interrogated. […] Accordingly, compounds of the invention were dissolved in DMSO to make 10 mM initial stock solutions. Serial dilutions in DMSO were then made to obtain the final solutions for the assay. A 1.5 μL aliquot of DMSO or inhibitor in DMSO was added to each well, followed by the addition of ^33P-ATP, and finally the addition of c-Met and polyE4Y (obtained from Sigma). After 20 min, the reaction was quenched with 50 μL of 30% trichloroacetic acid (TCA) containing 4 mM ATP. The reaction mixture was transferred to the 0.66 mm GF filter plates (Corning) and washed three times with 5% TCA. Following the addition of 50 μL of Ultimate Gold™ high efficiency scintillant (Packard Bioscience), the samples were counted in a Packard TopCount NXT Microplate Scintillation and Luminescence Counter (Packard BioScience). The Ki values, shown in Table 2, were calculated using Microsoft Excel Solver macros to fit the data to the kinetic model for competitive tight-binding inhibition.

SMILES | pIC50 ([1]; 6 hours) | pIC50 ([1]; Homo sapiens, SNU-5, 6 hours) | pKi [2]
Cc1nn(C)cc1-c1nn2c(Cc3ccc4ncccc4c3)nnc2s1 [Compound 1] | 8.70 |  | 
CCc1nn(C)cc1-c1nn2c(Cc3ccc4ncccc4c3)nnc2s1 [Compound 2] | 8.40 |  | 
Cn1cc(-c2nn3c(Cc4ccc5ncccc5c4)nnc3s2)c(C(F)(F)F)n1 [Compound 3] | 8.70 |  | 
CC(C)c1nn(C)cc1-c1nn2c(Cc3ccc4ncccc4c3)nnc2s1 [Compound 4] | 8.52 |  | 
CCc1nn(C)cc1-c1nn2c([C@H](C)c3ccc4ncccc4c3)nnc2s1 [Compound 7] |  | 8.22 | 8.00
CCc1nn(C)cc1-c1nn2c([C@@H](C)c3ccc4ncccc4c3)nnc2s1 [Compound 10] |  | 8.21 | 8.30
C[C@@H](c1ccc2ncccc2c1)c1nnc2sc(-c3cn(C)nc3C3CC3)nn12 [Compound 12] |  | 8.15 | 8.15
Cc1nn(C)cc1-c1nn2c(C(C)(C)c3ccc4ncccc4c3)nnc2s1 [Compound 13] |  | 6.60 | 6.44
Cc1nn(C)cc1-c1nn2c([C@H](C)c3c(F)cc4ncccc4c3F)nnc2s1 [Compound 19] |  | 8.30 | 7.66
CC(C)c1nn(C)cc1-c1nn2c(C(F)(F)c3ccc4ncccc4c3)nnc2s1 [Compound 21] |  | 8.22 | 8.40
Cn1cc(-c2nn3c(Cc4ccc5ncccc5c4)nnc3s2)cn1 [reference compound] |  | 7.07 | 
C[C@@H](c1ccc2ncccc2c1)c1nnc2sc(-c3cnn(C)c3)nn12 [reference compound] |  | 7.82 | 7.62
C[C@H](c1ccc2ncccc2c1)c1nnc2sc(-c3cnn(C)c3)nn12 [reference compound] |  | 7.05 | 6.61
Cn1cc(-c2nn3c(C(C)(C)c4ccc5ncccc5c4)nnc3s2)cn1 [reference compound] |  | < 6.00 | 5.47
Cn1cc(-c2nn3c(Cc4c(F)cc5ncccc5c4F)nnc3s2)cn1 [reference compound] |  | 7.92 | 7.80
C[C@@H](c1c(F)cc2ncccc2c1F)c1nnc2sc(-c3cnn(C)c3)nn12 [reference compound] |  | 8.22 | 8.30
C[C@H](c1c(F)cc2ncccc2c1F)c1nnc2sc(-c3cnn(C)c3)nn12 [reference compound] |  | 7.22 | 7.15
Cn1cc(-c2nn3c(C(F)(F)c4ccc5ncccc5c4)nnc3s2)cn1 [reference compound] |  | 7.85 | 7.44

More lines, in order of rising pIC50 ([1]; Homo sapiens, SNU-5, 6 hours), values ahead:

pIC50 ([1]; 6 hours) | pIC50 ([1]; Homo sapiens, SNU-5, 6 hours) | pKi [2] | SMILES
 | 8.40 | 7.85 | Cc1nn(C)cc1-c1nn2c(C(F)(F)c3ccc4ncccc4c3)nnc2s1 [Compound 20]
 | 8.52 | 7.62 | C[C@H](c1ccc2ncccc2c1)c1nnc2sc(-c3cn(C)nc3C3CC3)nn12 [Compound 8]
 | 8.52 | 7.82 | Cc1nn(C)cc1-c1nn2c([C@@H](C)c3ccc4ncccc4c3)nnc2s1 [Compound 9]
 | 8.52 | 8.62 | CC(C)c1nn(C)cc1-c1nn2c(Cc3c(F)cc4ncccc4c3F)nnc2s1 [Compound 16]
 | 8.60 | 7.62 | Cc1nn(C)cc1-c1nn2c([C@H](C)c3ccc4ncccc4c3)nnc2s1 [Compound 5]
 | 8.60 | 8.70 | Cn1cc(-c2nn3c(Cc4c(F)cc5ncccc5c4F)nnc3s2)c(C(F)(F)F)n1 [Compound 17]
 | 8.70 | 8.15 | C[C@H](c1ccc2ncccc2c1)c1nnc2sc(-c3cn(C)nc3C(F)(F)F)nn12 [Compound 6]
 | 8.70 | 8.52 | C[C@@H](c1ccc2ncccc2c1)c1nnc2sc(-c3cn(C)nc3C(F)(F)F)nn12 [Compound 11]
 | 8.70 | 8.15 | Cc1nn(C)cc1-c1nn2c(Cc3c(F)cc4ncccc4c3F)nnc2s1 [Compound 14]
 | 8.70 | 8.60 | CCc1nn(C)cc1-c1nn2c(Cc3c(F)cc4ncccc4c3F)nnc2s1 [Compound 15]
 | 9.30 | 8.70 | Cc1nn(C)cc1-c1nn2c([C@@H](C)c3c(F)cc4ncccc4c3F)nnc2s1 [Compound 18]
